The values that follow come from patent publication US6610846B1, “Heteroaromatic glucokinase activators” (Hoffman-La Roche Inc., priority 1999, dated 2003).

For orientation: melting point means the temperature of the solid-liquid transition. In the case of `O=C(Nc1nncs1)C(CC1CCCC1)c1ccc(Cl)c(Cl)c1` (centres unmarked) [Example 83, 3-Cyclopentyl-2-(3,4-dichlorophenyl)-N-[1,3,4]thiadiazol-2-yl-propionamide], the melting point was in the range of 90 to 91 °C. The molecule `O=C(O)c1cnc(NC(=O)C(CC2CCCC2)c2ccc(Cl)c(Cl)c2)s1` (centres unmarked) [Example 19, 2-[3-Cyclopentyl-2-(3,4-dichlorophenyl)-propionylamino]-thiazole-5-carboxylic acid] displayed a melting point of 269 to 270 °C. In the case of `Cc1ccc(NC(=O)C(CC2CCCC2)c2ccc(S(C)(=O)=O)cc2)nc1` (centres unmarked) [Example 53(A), 3-Cyclopentyl-2-(4-methanesulfonyl-phenyl)-N-(5-methyl-pyridin-2-yl)-propionamide] it was 184 to 185 °C; in that of `CS(=O)(=O)c1ccc(C(CC2CCCC2)C(=O)Nc2ncc(C(N)=O)s2)cc1` (centres unmarked) [Example 134, 2-[3-Cyclopentyl-2-(4-methanesulfonyl-phenyl)-propionylamino]-thiazole-5-carboxylic acid amide], 155 to 160 °C; in that of `CS(=O)(=O)c1ccc(C(CC2CCCC2)C(=O)Nc2ncc[nH]2)cc1Br` (centres unmarked) [Example 150, 2-(3-Bromo-4-methanesulfonyl-phenyl)-3-cyclopentyl-N-(1 H-imidazol-2-yl)-propionamide], > 210 °C (dec.). For `O=C(Nc1nc(CO)cs1)C(CC1CCCC1)c1ccc(Cl)c(Cl)c1` (centres unmarked) [Example 17, 3-Cyclopentyl-2-(3,4-dichlorophenyl)-N-(4-hydroxymethyl-thiazol-2-yl)-propionamide] the value was 88 to 90 °C; for `O=C(Nc1nccs1)C(CC1CCCC1)c1ccc(Cl)c([N+](=O)[O-])c1` (centres unmarked) [Example 64, 2-(4-Chloro-3-nitro-phenyl)-3-cyclopentyl-N-thiazol-2-yl-propionamide], 68 to 72 °C. In the case of `O=C(O)c1ccc(NC(=O)C(CC2CCCC2)c2ccc(Cl)cc2)nc1` (centres unmarked) [Example 47, 6-[2-(4-Chloro-phenyl)-3-cyclopentyl-propionylamino]-nicotinic acid] it was 206 to 208 °C. `CS(=O)(=O)c1ccc(C(CC2CCCC2)C(=O)Nc2nc(CO)cs2)cc1` (centres unmarked) [Example 35, 3-Cyclopentyl-N-(4-hydroxymethyl-thiazol-2-yl)-2-(4-methanesulfonyl-phenyl)-propionamide]: the melting point was 124 to 126 °C. For `O=C(Nc1nccs1)C(CC1CCCC1)c1ccc(C(F)(F)F)cc1` (centres unmarked) [Example 8, 3-Cyclopentyl-N-thiazol-2-yl-2-(4-trifluoromethyl-phenyl)-propionamide] the value was 210 to 212 °C; for `O=C(Nc1nccnn1)C(CC1CCCC1)c1ccc(Cl)c(Cl)c1` (centres unmarked) [Example 81, 3-Cyclopentyl-2-(3,4-dichlorophenyl)-N-[1,2,4]triazin-3-yl-propionamide], 81 to 83 °C. On to `O=C(Nc1ccc(Br)cn1)C(CC1CCCC1)c1ccc(Cl)c([N+](=O)[O-])c1` (centres unmarked) [Example 164, N-(5-Bromo-pyridin-2-yl)-2-(4-chloro-3-nitro-phenyl)-3-cyclopentyl-propionamide], for which the melting point was 128 to 130 °C. `CS(=O)(=O)c1ccc(C(CC2CCCC2)C(=O)Nc2nccs2)cc1[N+](=O)[O-]` (centres unmarked) [Example 14, 3-Cyclopentyl-2-(4-methanesulfonyl-3-nitrophenyl)-N-thiazol-2-yl-propionamide] came in with a melting point of 121 to 124 °C. In the case of `O=C(O)Cc1csc(NC(=O)C(CC2CCCC2)c2ccc(Cl)c(Cl)c2)n1` (centres unmarked) [Example 18, {2-[3-Cyclopentyl-2-(3,4-dichlorophenyl)-propionylamino]-thiazol-4-yl}-acetic acid] it was 100 to 102 °C; in that of `O=C(Nc1nccs1)C(CC1CCCC1)c1ccc(F)c(C(F)(F)F)c1` (centres unmarked) [Example 87(A), 3-Cyclopentyl-2-(4-fluoro-3-trifluoromethyl-phenyl)-N-thiazol-2-yl-propionamide], 125 to 127 °C.

As to `CS(=O)(=O)c1ccc(C(CC2CCCC2)C(=O)Nc2ccc(Br)cn2)cc1[N+](=O)[O-]` (centres unmarked) [Example 66, N-(5-Bromo-pyridin-2-yl)-3-cyclopentyl-2-(4-methanesulfonyl-3-nitro-phenyl)-propionamide], the melting point fell in the range of 80 to 83 °C.

Take `N#Cc1ccc(C(CC2CCCC2)C(=O)Nc2nccs2)cc1` (centres unmarked) [Example 84(A), 2-(4-Cyano-phenyl)-3-cyclopentyl-N-thiazol-2-yl-propionamide]: the melting point was 64 to 66 °C.

The molecule `O=C(Nc1ccc(CO)cn1)C(CC1CCCC1)c1ccc(Cl)cc1` (centres unmarked) [Example 50, 2-(4-Chloro-phenyl)-3-cyclopentyl-N-(5-hydroxymethyl-pyridin-2-yl)-propionamide] returned a melting point of 60 to 62 °C. In the case of `O=C(Nc1ccc(Br)cn1)C(CC1CCCC1)c1ccc(S(=O)(=O)C(F)(F)F)cc1` (centres unmarked) [Example 63, N-(5-Bromo-pyridin-2-yl)-3-cyclopentyl-2-(4-trifluoromethanesulfonyl-phenyl)-propionamide] it was 130 to 132 °C; in that of `CSc1ccc(C(CC2CCCC2)C(=O)Nc2ccc([N+](=O)[O-])cn2)cc1C(F)(F)F` (centres unmarked) [Example 154(A), 3-Cyclopentyl-2-(4-methylsulfanyl-3-trifluoromethyl-phenyl)-N-(5-nitro-pyridin-2-yl)-propionamide], 109 to 110 °C; in that of `CS(=O)(=O)c1ccc([C@@H](CC2CCCC2)C(=O)Nc2cc[nH]c(=O)n2)cc1Cl` [Example 145, 2(R)-(3-Chloro-4-methanesulfonyl-phenyl)-3-cyclopentyl-N-(2-oxo-1,2-dihydro-pyrimidin-4-yl)-propionamide], greater than 200 °C. Turning to `COC(=O)c1csc(NC(=O)C(CC2CCCC2)c2cccc(Cl)c2)n1` (centres unmarked) [Example 30, 2-[2-(3-Chloro-phenyl)-3-cyclopentyl-propionylamino]-thiazole-4-carboxylic acid methyl ester], the melting point lay within 95 to 98 °C. In turn, `O=C(Nc1ncc(CO)s1)C(CC1CCCC1)c1ccc(Cl)c(Cl)c1` (centres unmarked) [Example 15, 3-Cyclopentyl-2-(3,4-dichlorophenyl)-N-(5-hydroxymethyl-thiazol-2-yl)-propionamide] came in with a melting point of 128 to 130 °C. `CS(=O)(=O)c1ccc(C(CC2CCCC2)C(=O)Nc2ccnc(=O)[nH]2)cc1C(F)(F)F` (centres unmarked) [Example 155(A), 3-Cyclopentyl-2-(4-methanesulfonyl-3-trifluoromethyl-phenyl)-N-(2-oxo-2,3-dihydro-pyrimidin-4-yl)-propionamide] yielded a melting point of 236 to 238 °C. For `O=C(Nc1nccs1)C(CC1CCCC1)c1cccc([N+](=O)[O-])c1` (centres unmarked) [Example 109, 3-Cyclopentyl-2-(3-nitrophenyl)-N-thiazol-2-yl-propionamide] the value was 171 to 174 °C; for `CS(=O)(=O)c1ccc(C(CC2CCCC2)C(=O)Nc2nccs2)cc1S(C)(=O)=O` (centres unmarked) [Example 79, 2-(3,4-Bis-methanesulfonyl-phenyl)-3-cyclopentyl-N-thiazol-2-yl-propionamide], 104 to 107 °C. In the case of `CCCCS(=O)(=O)c1ccc(C(CC2CCCC2)C(=O)Nc2nccs2)cc1` (centres unmarked) [Example 86(A), 2-[4-(Butane-1-sulfonyl)-phenyl]-3-cyclopentyl-N-thiazol-2-yl-propionamide] it was 163 to 165 °C. For `O=C(O)c1ccc(NC(=O)C(CC2CCCC2)c2cccc(Cl)c2)nc1` (centres unmarked) [Example 120, 6-[2-(3-Chloro-phenyl)-3-cyclopentyl-propionylamino]-nicotinic acid] the value was 251 to 255 °C; for `O=C(Nc1ccccn1)C(CC1CCCC1)c1ccc([N+](=O)[O-])cc1` (centres unmarked) [Example 39(A), 3-Cyclopentyl-2-(4-nitro-phenyl)-N-pyridin-2-yl-propionamide], 152 to 154 °C. Molecule `CCOC(=O)Cc1csc(NC(=O)C(CC2CCCC2)c2ccc(S(=O)(=O)C(F)(F)F)cc2)n1` (centres unmarked) [Example 62, {2-[3-Cyclopentyl-2-(4-trifluoromethanesulfonyl-phenyl)-propionylamino]-thiazol-4-yl}-acetic acid ethyl ester] came in with a melting point of 48 to 51 °C. In the case of `COc1ccc(C(CC2CCCC2)C(=O)Nc2nccs2)cc1OC` (centres unmarked) [Example 113, 3-Cyclopentyl-2-(3,4-dimethoxy-phenyl)-N-thiazol-2-yl-propionamide] it was 50 to 52 °C.

As for `COc1ccc(C(CC2CCCC2)C(=O)Nc2nccs2)cc1` (centres unmarked) [Example 115, 3-Cyclopentyl-2-(4-methoxy-phenyl)-N-thiazol-2-yl-propionamide], the melting point is 166 to 167 °C. `O=C(Nc1cnccn1)C(CC1CCCC1)c1ccc(Cl)c(Cl)c1` (centres unmarked) [Example 104, 3-Cyclopentyl-2-(3,4-dichloro-phenyl)-N-pyrazin-2-yl-propionamide]: the melting point was 46.5 to 51.3 °C. In the case of `O=C(Nc1nccs1)C(CC1CCCC1)c1cccc(C(F)(F)F)c1` (centres unmarked) [Example 88, 3-Cyclopentyl-N-thiazol-2-yl-2-(3-trifluoromethyl-phenyl)-propionamide] it was 134 to 136 °C; in that of `CS(=O)(=O)c1ccc(C(CC2CCCC2)C(=O)Nc2ccncn2)cc1Br` (centres unmarked) [Example 148(A), 2-(3-Bromo-4-methanesulfonyl-phenyl)-3-cyclopentyl-N-pyrimidin-4-yl-propionamide], 75 to 80 °C; in that of `O=C(Nc1nccs1)C(CC1CCCC1)c1ccc(Br)cc1` (centres unmarked) [Example 2, 2-(4-Bromo-phenyl)-3-cyclopentyl-N-thiazol-2-yl-propionamide], 201 to 202 °C. The molecule `CS(=O)(=O)c1ccc(C(CC2CCCC2)C(=O)Nc2ccccn2)cc1C(F)(F)F` (centres unmarked) [Example 90, 3-Cyclopentyl-2-(4-methanesulfonyl-3-trifluoromethyl-phenyl)-N-pyridin-2-yl-propionamide] returned a melting point of 86 to 89 °C. In turn, `O=C(Nc1nccs1)C(CC1CCCC1)c1ccc(C(F)(F)F)c(F)c1` (centres unmarked) [Example 70, 3-Cyclopentyl-2-(3-fluoro-4-trifluoromethyl-phenyl)-N-thiazol-2-yl-propionamide] gave a melting point of 194 to 195 °C.
